Consider two compounds from patent publication US12616706B2, “Compositions and methods of use comprising substances with neural plasticity actions administered at non-psychedelic/psychotomimetic dosages and formulations” (Arbormentis LLC, priority 2019, dated 2026).

The conditions of data set [1]: cited from earlier work.
For a further data set, the system named is IMR-90. Nature of the data set: Beta Gal assay, UVB induced senescence. Format: cell-based. The text has this:
Seeding occurred on Day 1, with pretreatment on Day 2, and UVB-induction and retreatment on Day 3, SABG on Day 8, and microscopy (SABG) on Day 9. […] Results for Example 6 can be seen in FIGS. 19A-27D, and Tables 4, 5, and 6 below.

The next data set deals with BDNF. The settings on record: only the lower dose, 25 mg daily, 14-day period; cited from earlier work.
For a further data set, the target named is 5-HT2A receptors (Homo sapiens, UniProt P28223). The settings on record: Rickli et al., 2017; cited from earlier work.
The next data set relates to VEGF. In words: VEGF expression in keratocytes exposed to CM of activated U937 (qPCR). It is filed as cell-based, human. As to conditions: 0.1 and 1 μM psilocin, 4, 10 and 24 h. On the procedure: (§1) Anti-inflammatory and anti-fibrotic effects evaluations. Cytokines expression was analyzed in human keratocytes and HCE cells exposed to the inflammatory conditioned medium (CM) of activated U937 cells.
(§2) U937 human monocytes were differentiated to macrophages by treatment with 50 ng/mL phorbol myristate acetate (PMA) for 48 h followed by the exposure to […] lipopolysaccharide (LPS) for 1 hour. Cells were then washed and cultivated with complete RPMI for 24 hours to produce the inflammatory CM. The CM was collected, filtered and stored at −80° C. The differentiation of monocytes to macrophages was examined under an inverted phase-contrast microscope and the mRNA expression of the macrophage differentiation marker CD68 was analysed by quantitative real time PCR (qPCR). Cells were then washed and cultivated with complete DMEM for 24 hours to produce the CM. The CM was collected, filtered and stored at −80° C.
(§3) At 4 and 10 or at 4, 10 and 24 h cells were detached […] extracted to analyze the expression of pro-inflammatory cytokines (IL-1β, TNF-α, IL-8, IL-12, IFNγ). The expression of type collagen I and VEGF was analysed on mRNA extracted from keratocyte cell cultures. The experiments were performed three times.

A further data set has as its system 5-HT2A. Nature of the data set: 5-HT2A receptor expression in ARPE-19 cells (immunofluorescence). Format: cell-based. The settings on record: acute and chronic psilocin exposure; decreasing tendency. The protocol:
(§4) First, the present inventors assessed the expression of three NMDAR subunits (NMDAR1, NMDAR2A, NMDAR2B) and two 5-HT2 subtypes (5-HT2A, 5-HT2C) by immunofluorescence coupled to confocal microscopy. 7,500 cells/well were plated in a 24-well plate on sterile glass coverslips. The next day, the immunofluorescence analysis was performed. The following primary antibodies were used: anti-NMDAR1A (Abcam, ab68144), NMDAR2A (Bioss, bs-3507R-TR), NMDAR2B (Bioss, bs-0222R-TR), 5-HT2A (Bioss, bs-12049R), 5-HT2C (Bioss, 2959R), and the secondary antibody goat anti-rabbit IgG (GeneTex, GTX213110-04). The images of the immunostained cells were acquired by means of a confocal microscope Zeiss LSM 800, using a 63× magnification and can be seen in FIGS. 9A-9E. ImageJ software was used to quantify the intensity of the fluorescent signal.
(§5) 7,500 cells/well were plated in a 24-well plate on sterile glass coverslips. […] After 6 days an immunofluorescence analysis coupled to confocal microscopy was performed with the primary and secondary antibodies described above.

Another data set has as its system TNF-α. In words: TNF-α expression in keratocytes exposed to CM of activated U937 (qPCR). Format: cell-based, human. As to conditions: 0.1 and 1 μM psilocin. The protocol:
as §1, §2, §3

Data set [2] concerns IL-8. Nature of the data set: IL-8 expression in keratocytes exposed to CM of activated U937 (qPCR). It is filed as cell-based, human. The settings on record: 0.1 and 1 μM psilocin, 4 and 10 h. On the procedure: as §1, §2, §3
A further data set relates to NMDAR1. In words: NMDAR1 protein expression in ARPE-19 cells (immunofluorescence). It is filed as cell-based. The protocol: as §4, §5
The next data set concerns 5-HT2C. Nature of the data set: 5-HT2C receptor expression in ARPE-19 cells (immunofluorescence). It is filed as cell-based. The settings on record: chronic treatment with psilocin. The protocol:
as §4, §5

Data set [3] has as its system IL-8. Nature of the data set: IL-8 expression in HCE cells exposed to CM of activated U937 (qPCR). It is filed as cell-based, human. As to conditions: 0.1 and 1 μM psilocin, 10 h. On the procedure: as §1, §2, §3
(In general: Real-time PCR tracks product formation cycle by cycle.)

Another data set has as its system IL-12. In words: IL-12 expression in keratocytes exposed to CM of activated U937 (qPCR). As to conditions: 0.1 and 1 μM psilocin, 4 and 10 h. Format: cell-based, human. On the procedure: as §1, §2, §3
Data set [4] deals with Human corneal epithelial (HCE) cells. Nature of the data set: Cell viability, MTT test, HCE cells. It is filed as cell-based. The text has this: (§6) Cell cultures. Human corneal epithelial (HCE) cells were obtained from the American Type Culture Collection. U937 human monocytes cell line was purchased from Thermo Scientific.
(§7) With this procedure, only viable cells with functioning mitochondria can oxidize MTT to a violet-red reaction product.
Background: Tetrazolium assays rely on reduction of a dye to a coloured formazan, in cell work by metabolically active cells.

The subject of a further data set is IL-1β. In words: IL-1β expression in keratocytes exposed to CM of activated U937 (qPCR). Format: cell-based, human. As to conditions: 0.1 and 1 μM psilocin, 4 h. The protocol:
as §1, §2, §3

In the next data set the test system is NMDAR2A. In words: NMDAR2A protein expression in ARPE-19 cells (immunofluorescence). Format: cell-based. The protocol: as §4, §5
The subject of the next data set is NMDAR2B. In words: NMDAR2B protein expression in ARPE-19 cells (immunofluorescence). Format: cell-based. The protocol: as §4, §5
In a further data set the test system is keratocytes. Nature of the data set: Cell viability, MTT test, keratocytes. Format: cell-based, human. The protocol: (§8) Primary corneal keratocytes were obtained after digestion of human corneas from healthy donors purchased at the Veneto Eye Bank Foundation (Venezia Mestre, Italy). After the corneal epithelium was removed with a cell scraper and the endothelium was enzymatically detached using 0.05% trypsin/0.02% EDTA-solution for 15 minutes at 37° C., the stroma was then cut into 3- to 4-mm pieces and treated overnight at 37° C. with type I collagenase (100 U/ml) and hyaluronidase (2 mg/ml) solutions in Dulbecco's Modified Eagle's Medium (DMEM). Isolated keratocytes were then seeded in monolayer and cultured at 37° C. with 5% CO2 in DMEM containing 10% FBS, 1% penicillin-streptomycin (P/S) and 1% L-glutamine (otherwise known as complete medium). Expanded cells were trypsinized and sub-cultured at a ratio of 1:2. Corneal cells were grown under standard cell culture practices in complete DMEM medium at 37° C., in a 5% CO2 atmosphere. U937 human monocytes were grown in suspension in complete RPMI 1640 medium and passaged twice weekly by dilution using a seeding density of 10^6 cells/ml.
as §7

The conditions of data set [5]: after ingestion of psilocybin mushrooms; cited from earlier work.
The subject of another data set is collagen type I. In words: Collagen type I expression in keratocytes exposed to CM of activated U937 (qPCR). It is filed as cell-based, human. As to conditions: 0.1 and 1 μM psilocin, 4, 10 and 24 h. The protocol:
as §1, §2, §3

The subject of a further data set is corneal cells. Nature of the data set: Psilocin cytotoxicity in corneal cells. The settings on record: 0.001 to 10 μM, assessed 3 days after treatment. It is filed as cell-based, human. The protocol: as §6, §8, §7
Where [6] appears, read: 0.05 μM, alternating medium with/without psilocin every 24 hours (96 hours).
Where [7] appears, read: 3 and 6 days after treatment, 0.01, 0.1 and 1 μM.

Where “and” joins values, the source holds several entries; their conditions need not be identical. Equal values may be shown once.

Sequence of 5-HT2A receptors (P28223 whole entry): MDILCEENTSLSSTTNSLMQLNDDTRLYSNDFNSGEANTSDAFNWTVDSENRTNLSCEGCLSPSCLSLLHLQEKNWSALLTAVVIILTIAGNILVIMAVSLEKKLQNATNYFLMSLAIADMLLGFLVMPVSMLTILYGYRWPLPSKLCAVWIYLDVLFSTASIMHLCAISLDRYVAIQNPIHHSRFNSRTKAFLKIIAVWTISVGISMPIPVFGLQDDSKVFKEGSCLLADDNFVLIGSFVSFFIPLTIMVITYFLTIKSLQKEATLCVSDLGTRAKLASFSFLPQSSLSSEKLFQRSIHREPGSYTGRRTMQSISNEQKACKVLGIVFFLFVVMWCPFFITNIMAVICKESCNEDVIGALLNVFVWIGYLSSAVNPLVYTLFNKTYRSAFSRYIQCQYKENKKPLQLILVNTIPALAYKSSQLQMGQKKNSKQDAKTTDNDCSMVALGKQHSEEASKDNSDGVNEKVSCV

Take `CCC(=O)C(C[C@H](C)N(C)C)(c1ccccc1)c1ccccc1` [D methadone, dextromethadone]: the Nootropic signal entry in data set [1] (only the lowest tested dose of 5 mg) is recorded as “elicited a nootropic signal”. The MTD in data set [1] (single ascending dose 5-200 mg, nausea and vomiting) is 150 mg. In addition, in the data set with IMR-90 (D methadone 10 nM), the “Avg % Beta Gal+ cells” value was found to be 79.01% and the “Total % Beta Gal+ cells” value came out at 81.29%. In addition, in the data set on IMR-90 (D methadone 10 nM, UVB without treatment Avg 85.63514), the “% Beta Gal+ cells, single well/duplicate” value is 71.875% and 85.71% and 77.19% and 81.25%. For the same compound, in the data set on IMR-90 (D methadone 500 nM), the “% Beta Gal+ cells, single well/duplicate” value was 82.86% and 82.35% and 76.47% and 91.67%; the “Avg % Beta Gal+ cells” value was 83.34%; the “Total % Beta Gal+ cells” value worked out at 83.94%. In the data set on BDNF, the “Plasma BDNF” value is reported as “statistically significant increase in plasma BDNF”. Besides, the “Affinity of 5-HT-2A receptors” value at 5-HT2A receptors is “nanomolar range”.
On to `CN(C)CCc1c[nH]c2cccc(O)c12` [psilocin], for which the “VEGF I gene expression” value in the data set on VEGF is “did not change significantly”. Moreover, the “Expression of 5-HT2A receptor” value in the data set with 5-HT2A is recorded as “virtually no effect”. Moreover, in the data set with IMR-90 (Psilocin 5 nM), the “% Beta Gal+ cells, single well/duplicate” value is 86.67% and 75% and 85.71% and 81.82%. Further, the “Avg % Beta Gal+ cells” value in the data set with IMR-90 (Psilocin 5 nM) amounted to 82.3%. The “Total % Beta Gal+ cells” value in the data set with IMR-90 (Psilocin 5 nM) amounted to 64.45%. Moreover, the Antisenescence effects entry is reported as “no antisenescence effects” in the data set with IMR-90 (higher doses of psilocin (up 24 microM, experiment not shown)) and “no antisenescence effects” in the data set on IMR-90 (psilocin lower doses (5 nM)). The “TNF-α mRNA expression” value with TNF-α is “very low and comparable to that of cells treated only with CM”. Moreover, in the data set with IL-8 [2], the “IL-8 mRNA expression” value is reported as “significant decrease”. Further, the NMDAR1 expression entry is “increase of NMDAR1 expression” in the data set on NMDAR1 (setting [6]) and “increased significantly” with NMDAR1 (alternate incubation or psilocin-containing medium replaced every day (FIGS. 11G-11I context)). Besides, the “NMDAR1 subunit protein expression” value in the data set with NMDAR1 (psilocin 0.05 μM for 6-days) is on record as “dramatic increase”; in the data set with NMDAR1 (psilocin 10 μM for 24 hours), “slight, not significant increase”. Further, in the data set on 5-HT2C, the “Expression of 5-HT2C” value is “increased after chronic treatment”. Also, the IL-8 gene expression result in the data set with IL-8 [3] is given as “significant down-regulation”. For the same compound, the “IL-12 mRNA expression” value in the data set on IL-12 is “significant decrease”. The Corneal cell viability entry (in [4] (setting [7]); in the data set on keratocytes (setting [7])) was “significant increase in corneal cell viability” throughout. Besides, the “Cell viability (MTT)” value is “significant increased viability” in data set [4] (HCE cells, 0.1 to 1 μM psilocin, up to 6 days) and “significant increased viability” with keratocytes (keratocytes, 0.1 to 1 μM psilocin, up to 6 days). For the same compound, in the data set with IL-1β, the “IL-1β mRNA expression” value is “significant decrease”. Also, the “NMDAR2A subunit protein expression” value in the data set on NMDAR2A (psilocin 0.05 μM for 6-days) is reported as “dramatic increase”; with NMDAR2A (psilocin 10 μM for 24 hours), “slight, not significant increase”. Besides, the NMDAR2B expression result in the data set on NMDAR2B (setting [6]) is “decrease of NMDAR2B expression”. Also, the “NMDAR2B subunit protein expression” value in the data set on NMDAR2B (psilocin 0.05 μM for 6-days) and in the data set on NMDAR2B (psilocin 10 μM for 24 hours) was “did not change” each time. The Psilocin in bile in data set [5] is reported as 3102 ng/mL. The “Psilocin in cardiac blood” value in data set [5] is given as 67 ng/mL. For the same compound, the “Psilocin in peripheral blood” value in [5] is listed as 60 ng/mL. The Psilocin in urine in [5] is 2230 ng/mL. The “Psilocin in vitreous humor” value in data set [5] is 57 ng/mL. The “Collagen type I gene expression” value in the data set on collagen type I is “did not change significantly”. Besides, the “Cytotoxic effect in vitro” value with corneal cells is reported as “does not have a cytotoxic effect”.
